# PMC4426631, “Insect antimicrobial peptides show potentiating functional interactions against Gram-negative bacteria” (Proceedings of the Royal Society B: Biological Sciences, 2015)
# Cf = 5(6)-carboxyfluorescein
# Experiments:
# [1] = tested on: E. coli strain D31; assay: Coarse growth inhibition assay, E. coli strain D31; assay type: cell-based
# Experimental: Initial coarse-level growth inhibition assays were carried out with concentrations of peptides up to 200 μM. Further assays of growth rates (bacteriostatic activity) and cell viability (bactericidal activity) were carried out on a finer scale. […] Growth rates were derived from spline-fitted growth curves to optical density (OD) data, while cell viability was assessed by plating cultures and counting colony-forming units after 18 h. Dose–response curves were fitted to both the bacteriostatic and bactericidal data with Markov Chain Monte Carlo parameter optimization (further details in electronic supplementary material). […]
# v) Coarse growth inhibition assays.
# Bact eria in mid-logarithmic phase were used for all growth inhibition assays. The initial OD600 for all assa ys was set to 0.001 to ensure the full contact of each b acteri al cell with added AMPs.
# The assa ys were carried out in 96-well plates (Griener Bio On e, Frick enh ausen, Germ an y) in an Eon™ Microplate Spectrophotometer (BioTek Instruments, VT, USA) for 16 h while r eco rding of changes in the OD600 at 20- min intervals. For each assa y, a control culture was included with medium onl y. The AMPs used inthis assay are sh own in Tables S1and S4. vi) Dose response curv e quantif ication
# Growth inhibition assay. E. coli cells (DSM 498) wer e grown in Muller-Hinton broth (Sigma-Aldrich) for 14 h at 30 °C and count ed using a FastRead 102 counting cham ber ( Immune S yst ems, UK). The suspension w as adjusted in fresh mediu m to achieve a cell density of 5 x 104 per 80 µl. […]
# 1.25, 2.5, 5, 10, and 20 μM) in rows, and 10 µl volumes of hymenoptaecin (final concentrations of 0, 0.625, 1.25, 2.5, 5, and 10 μM) in columns. […] Th e OD600 was measured ever y hour for 12 consecutive hours using a SpectraMax M2e microplate reader (Molecular Devices, Sunnyvale, USA). […]
# Cell viability. […] Bacteria were grown for 18 h with AMPs before the number of viable cells was assessed. […] Colony-forming units (CFUs), each representing a viable cell from the culture, were counted at a dilution where each individual CFU could be distinguished.
# [2] = tested on: E. coli strain JM83; assay: E. coli permeabilization assay (β-galactosidase leakage); assay type: cell-based
# Experimental: The membrane permeabilizing activities of AMPs were determined using E. coli strain JM83 on the basis of β-galactosidase activity leaking from the cytoplasm, as described in detail in the electronic supplementary material. Living bacteria incubated with medium only were used as a negative control and bacteria killed by treatment with 5 µM synthetic cecropin B (Sigma-Aldrich) were used as a positive control (100% permeabilization). Before setting the perforation level of the positive control to 100%, the perforation value obtained for the negative control was subtracted from all other measurements. All assays were carried out three times, each time in triplicate. The results were presented as means ± s.d. (n = 3) based on statistical analysis using Student's t-test. […]
# i) Peptide synthesis and modification.
# The peptide sequences shown in Tabl es S1 an d S4 were selected according to their repo rted structural and functional properties, synthesized and purified to >95%. […]
# The membran e p ermeabilizing activities of AMPs were determined using E. coli strain JM83 on the basis of β-gal actosidase activit y leakin g from the c ytoplasm. […] The samples were incubated at 37°C for 90 min and the absorbance was measured at 405 nm , which is proportional to the amount of released β-gal act osidase. […]
substance,measurement,setting,value
"abaecin: proline-rich peptide abaecin, species version not specified at the place (Cf-FVPYNPPRPGQSKPFPSFPGHGPFNPKIQWPYPLPNPGH-NH2)","antibacterial activity, abaecin alone","[1]; E. coli D31, 20 µM (figure 1a) to 200 µM (data not shown), OD600, 16 h",unable to detect any antibacterial activity
same,"antibacterial activity, abaecin alone","[1]; E. coli, tested alone at concentrations of up to 200 μM",no detectable activity
same,"impact on bacterial growth or survival, abaecin alone",[1]; even at a concentration of 200 µM,no impact on bacterial growth or survival
same,"perforation of the bacterial envelope, abaecin alone","[2]; 20 µM abaecin, pH 6.8 phosphate buffer, 45 min, 37°C, 405 nm, relative to 5 µM cecropin B = 100%, n = 3",approximately 4.8%
same,"increase in membrane permeability, in words",[2]; peptide alone,only marginally increased
